{
  "source": "patent US11464750B2",
  "about": "“Anticancer agent and use thereof” (priority 2017, dated 2022)",
  "key": {"JeKo-1 cells": {"system": "JeKo-1 cells", "test": "MTT assay, JeKo-1 cells", "format": "cell-based, human", "details": "48 hours", "method": "JeKo-1 cells of a cell line derived from a human mantle cell lymphoma were seeded in a 96-well plate at 1×10^4 cells/well/100 μL. In addition, Panc-1 cells of a cell line derived from a human pancreatic cancer were seeded in a 96-well plate at 3×10^3 cells/well/100 μL.\nSubsequently, 3EZ,20Ac-ingenol at final concentrations of 0 (control), 0.1, 0.5, 1, 5, and 10 μM was added the wells of the respective cells, and culturing was performed for 48 hours. Subsequently, cell proliferation was examined by MTT assay using a Cell Proliferation Kit I (Roche Applied Science).\nFirst, JeKo-1 cells were seeded in a 96-well plate at 1×10^4 cells/well/100 μL. Subsequently, irinotecan at a final concentration of 0 (control), 0.5, 1, 5, 10, 20, and 30 μM was added to the wells of the cells and culturing was performed for 48 hours. In addition, Panc-1 cells were seeded in a 96-well plate at 3×10^3 cells/well/100 μL. Subsequently, irinotecan at a final concentration of 0 (control), 0.5, 1, 5, 10, 20, 30, and 50 μM was added to the wells of the cells and culturing was performed for 48 hours. Subsequently, cell proliferation was examined by MTT assay using a Cell Proliferation Kit I (Roche Applied Science)."}, "BALL-1 cells": {"system": "BALL-1 cells", "test": "Cell Death Detection ELISA (histone-binding DNA fragmentation), BALL-1", "format": "cell-based, human", "details": "0.5 μM, 72 hours", "method": "The induction of apoptosis by 3EZ,20Ac-ingenol treatment was examined by detecting histone-binding DNA fragmentation in the cytoplasm using a Cell Death Detection ELISA kit (Roche Applied Science).\nSpecifically, BALL-1 cells, TKG0210 cells, and TKG0377 cells were inserted into tubes at 5×10^4 cells/well/200 μL, and incubated for 6, 12, 24, 48, and 72 hours in the presence of 3EZ,20Ac-ingenol at a final concentration of 0.5 μM. Subsequently, the respective cells were lysed in a lysis buffer. Subsequently, the supernatant of cell debris of the respective cells was collected and transferred to an ELISA plate, and an absorbance at a wavelength of 405 nm was measured to measure the induction of apoptosis."}, "[1]": {"system": "phosphorylated p53 (p-p53) protein", "test": "Western blotting, phosphorylated p53, JeKo-1 cells", "format": "cell-based, human", "details": "0.5 μM, entire cells", "method": "Specifically, JeKo-1 cells were cultured for 0 (control), 12, 24, and 48 hours in the presence of 0.5 μM of 3EZ,20Ac-ingenol. In addition, Panc-1 cells were cultured for 0 (control), 12, 24, and 48 hours in the presence of 3 μM of 3EZ,20Ac-ingenol.\nSubsequently, ATR protein, p53 protein, and phosphorylated p53 (hereinafter also referred to as “p-p53”) protein in the respective cells were respectively detected using an anti-ATR antibody (Cell Signaling Technology), an anti-p53 antibody (Santa Cruz), and an anti-p-p53 antibody (Cell Signaling Technology). Furthermore, as a loading control, actin protein was detected using an anti-actin antibody (Sigma)."}, "PTEN": {"system": "PTEN", "test": "Western blotting, PTEN, BALL-1 cells", "format": "cell-based, human", "details": "0.5 μM", "method": "The effect of 3EZ,20Ac-ingenol treatment on PTEN, p-PTEN, and p-Akt of BALL-1 cells was examined. First, BALL-1 cells were cultured for 3, 6, 12, 24, and 48 hours in the presence of 3EZ,20Ac-ingenol at a final concentration of 0.5 μM, and by Western blotting using an anti-PTEN antibody (Santa Cruz), an anti-p-PTEN (Ser^380/Thr^382/383) antibody (Santa Cruz), and an anti-p-Akt (Ser^473) antibody (Cell Signaling Technology), abundances of PTEN, p-PTEN, and p-Akt in the entire cell fraction were analyzed. In addition, cells cultured in the absence of 3EZ,20Ac-ingenol were used as controls.\nSubsequently, siRNA against PTEN (“ON-TARGET Plus Human PTEN (5728) siRNA-SMARTpool,” GE Dharmacon) was introduced into BALL-1 cells at a final concentration of 50 nM and incubated for 48 hours. Subsequently, a cell medium was replaced with a new medium and cultured for 12, 24, and 48 hours in the presence or absence of 3EZ,20Ac-ingenol at a final concentration of 0.5 μM, and by Western blotting using an anti-PTEN antibody (Santa Cruz) and an anti-p-Akt (Ser^473) antibody (Cell Signaling Technology), abundances of PTEN protein and p-Akt were analyzed."}, "PTEN protein": {"system": "PTEN protein", "test": "Western blotting, PTEN protein, JeKo-1 cells", "format": "cell-based, human", "details": "0.5 μM", "method": "(§1) Specifically, first, JeKo-1 cells were cultured for 0 (control), 12, 24, and 48 hours in the presence of 0.5 μM of 3EZ,20Ac-ingenol. In addition, Panc-1 cells were cultured for 0 (control), 12, 24, and 48 hours in the presence of 3 μM of 3EZ,20Ac-ingenol.\nSubsequently, abundances of PTEN protein in entire cell fractions, nuclear fractions, and cytoplasm fractions of the respective cells were analyzed by Western blotting using an anti-PTEN antibody (Santa Cruz). Furthermore, as a loading control, actin protein was detected using an anti-actin antibody (Sigma)."}, "p-Akt (Ser^473)": {"system": "p-Akt (Ser^473)", "test": "Western blotting, p-Akt, Panc-1 cells", "format": "cell-based, human", "details": "3 μM", "method": "as §1\n(§2) Subsequently, by Western blotting using an anti-Akt antibody (Cell Signaling Technology) and an anti-p-Akt (Ser^473) antibody (Cell Signaling Technology), abundances of total amounts of Akt protein and p-Akt in the entire cell fractions, nuclear fractions, and cytoplasm fractions of the respective cells were analyzed. Furthermore, as a loading control, actin protein was detected using an anti-actin antibody (Sigma)."}, "Akt protein": {"system": "Akt protein", "test": "Western blotting, total amount of Akt, Panc-1 cells", "format": "cell-based, human", "details": "3 μM", "method": "as §1, §2"}, "DT40 cells": {"system": "DT40 cells", "details": "stop in the G2/M phase; cited from earlier work"}, "[2]": {"details": "entire cell fraction, 12 hours and 24 hours"}, "[3]": {"details": "nuclear fraction and cytoplasm fraction, 12 to 24 hours"}, "[4]": {"details": "nuclear fraction and cytoplasm fraction, 48 hours"}},
  "data": [
    {"compound": "CCCCC/C=C\\C=C\\C(=O)O[C@H]1C(C)=C[C@]23C(=O)[C@@H](C=C(COC(C)=O)[C@@H](O)[C@]12O)[C@H]1[C@@H](C[C@H]3C)C1(C)C", "note": "[3EZ,20Ac-ingenol, 3-O-(2′E,4′Z-decadienoyl)-20-O-acetylingenol]", "values": [
      {"measurement": "proliferation inhibition of JeKo-1 cells", "setting": "JeKo-1 cells; 1 to 10 μM of 3EZ,20Ac-ingenol", "value": "grown cells were almost eliminated"},
      {"measurement": "IC50", "setting": "JeKo-1 cells; MTT assay, read-out: IC50 with respect to the JeKo-1 cells", "value": 500, "unit": "nM"},
      {"measurement": "amount of fragmented DNA (apoptosis)", "setting": "BALL-1 cells", "value": "noticeably increased the amount of fragmented DNA"},
      {"measurement": "phosphorylation of p53", "setting": "[1]", "value": "phosphorylation of p53 was not confirmed"},
      {"measurement": "abundance of PTEN", "setting": "PTEN; 3 to 48 hours, entire cell fraction", "value": "an increase in abundance of PTEN"},
      {"measurement": "expression level of PTEN", "setting": "PTEN; cells with siRNA against PTEN introduced, 12 hours, further increased 24 and 48 hours", "value": "an increase in expression level of PTEN was observed"},
      {"measurement": "abundance of PTEN protein", "setting": "PTEN protein; cytoplasm fraction, 12 hours to 24 hours", "value": "an increase in abundance of PTEN protein in the cytoplasm fraction was observed"},
      {"measurement": "abundance of PTEN protein", "setting": "PTEN protein; cytoplasm fraction, 48 hours", "value": "a decrease in abundance of PTEN protein was observed"},
      {"measurement": "abundance of PTEN protein", "setting": "PTEN protein; entire cell fraction, 12 hours until 48 hours", "value": "an abundance of PTEN protein increased"},
      {"measurement": "abundance of PTEN protein", "setting": "PTEN protein; nuclear fraction, 12 hours to 24 hours", "value": "an increase in abundance of PTEN protein in the nuclear fraction was observed"},
      {"measurement": "abundance of p-Akt", "setting": "p-Akt (Ser^473); [2]", "value": "a temporary increase in abundances of both p-Akt and total amount of Akt was recognized"},
      {"measurement": "abundance of p-Akt", "setting": "p-Akt (Ser^473); entire cell fraction, 48 hours", "value": "a decrease was observed again"},
      {"measurement": "abundance of p-Akt", "setting": "p-Akt (Ser^473); [3]", "value": "an increase in abundance of both p-Akt and total amount of Akt was recognized"},
      {"measurement": "abundance of p-Akt", "setting": "p-Akt (Ser^473); [4]", "value": "a decrease was observed 48 hours after the treatment"},
      {"measurement": "abundance of total amount of Akt", "setting": "Akt protein; [2]", "value": "a temporary increase in abundances of both p-Akt and total amount of Akt was recognized"},
      {"measurement": "abundance of total amount of Akt", "setting": "Akt protein; entire cell fraction, 48 hours", "value": "a decrease was observed again"},
      {"measurement": "abundance of total amount of Akt", "setting": "Akt protein; [3]", "value": "an increase in abundance of both p-Akt and total amount of Akt was recognized"},
      {"measurement": "abundance of total amount of Akt", "setting": "Akt protein; [4]", "value": "a decrease was observed 48 hours after the treatment"},
      {"measurement": "cell proliferation of DT40 cells", "setting": "DT40 cells", "value": "stops cell proliferation of DT40 cells"}
    ]}
  ]
}
